{
  "source": "paper PMC5590943",
  "about": "“Pharmacological characterisation of S 47445, a novel positive allosteric modulator of AMPA receptors” (PLoS ONE, 2017)",
  "key": {"[1]": {"biological_target": "T1, GluA1flop/GluA2flip AMPA receptors (Homo sapiens, UniProt P42261+P42262, Q607R)", "T1 construct": "host or cells: Xenopus laevis oocytes", "T1 sequence (P42261 19-906)": "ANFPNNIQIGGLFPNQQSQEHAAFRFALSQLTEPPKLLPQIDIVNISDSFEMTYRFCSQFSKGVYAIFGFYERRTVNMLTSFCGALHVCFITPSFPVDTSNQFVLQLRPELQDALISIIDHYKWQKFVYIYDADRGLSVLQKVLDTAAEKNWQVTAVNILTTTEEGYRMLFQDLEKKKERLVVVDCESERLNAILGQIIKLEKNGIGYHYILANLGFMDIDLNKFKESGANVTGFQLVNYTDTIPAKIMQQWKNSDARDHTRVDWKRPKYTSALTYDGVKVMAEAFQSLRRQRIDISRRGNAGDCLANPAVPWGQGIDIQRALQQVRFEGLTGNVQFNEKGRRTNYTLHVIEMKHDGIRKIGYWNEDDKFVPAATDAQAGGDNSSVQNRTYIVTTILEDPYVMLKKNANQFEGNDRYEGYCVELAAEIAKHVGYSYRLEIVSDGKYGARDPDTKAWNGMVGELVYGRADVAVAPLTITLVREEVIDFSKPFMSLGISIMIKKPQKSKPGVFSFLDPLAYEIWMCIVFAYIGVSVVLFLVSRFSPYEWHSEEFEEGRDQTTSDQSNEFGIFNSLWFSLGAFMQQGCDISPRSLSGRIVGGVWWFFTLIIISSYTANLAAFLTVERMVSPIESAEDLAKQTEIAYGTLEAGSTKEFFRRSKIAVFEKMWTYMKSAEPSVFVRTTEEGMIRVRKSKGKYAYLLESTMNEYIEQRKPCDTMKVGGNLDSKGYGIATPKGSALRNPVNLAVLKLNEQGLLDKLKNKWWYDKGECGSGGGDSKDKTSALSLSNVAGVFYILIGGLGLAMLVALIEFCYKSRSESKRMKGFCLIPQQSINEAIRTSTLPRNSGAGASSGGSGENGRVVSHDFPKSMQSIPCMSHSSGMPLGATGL", "T1 sequence (P42262 22-883 isoform P42262-2 Q607R limits assumed)": "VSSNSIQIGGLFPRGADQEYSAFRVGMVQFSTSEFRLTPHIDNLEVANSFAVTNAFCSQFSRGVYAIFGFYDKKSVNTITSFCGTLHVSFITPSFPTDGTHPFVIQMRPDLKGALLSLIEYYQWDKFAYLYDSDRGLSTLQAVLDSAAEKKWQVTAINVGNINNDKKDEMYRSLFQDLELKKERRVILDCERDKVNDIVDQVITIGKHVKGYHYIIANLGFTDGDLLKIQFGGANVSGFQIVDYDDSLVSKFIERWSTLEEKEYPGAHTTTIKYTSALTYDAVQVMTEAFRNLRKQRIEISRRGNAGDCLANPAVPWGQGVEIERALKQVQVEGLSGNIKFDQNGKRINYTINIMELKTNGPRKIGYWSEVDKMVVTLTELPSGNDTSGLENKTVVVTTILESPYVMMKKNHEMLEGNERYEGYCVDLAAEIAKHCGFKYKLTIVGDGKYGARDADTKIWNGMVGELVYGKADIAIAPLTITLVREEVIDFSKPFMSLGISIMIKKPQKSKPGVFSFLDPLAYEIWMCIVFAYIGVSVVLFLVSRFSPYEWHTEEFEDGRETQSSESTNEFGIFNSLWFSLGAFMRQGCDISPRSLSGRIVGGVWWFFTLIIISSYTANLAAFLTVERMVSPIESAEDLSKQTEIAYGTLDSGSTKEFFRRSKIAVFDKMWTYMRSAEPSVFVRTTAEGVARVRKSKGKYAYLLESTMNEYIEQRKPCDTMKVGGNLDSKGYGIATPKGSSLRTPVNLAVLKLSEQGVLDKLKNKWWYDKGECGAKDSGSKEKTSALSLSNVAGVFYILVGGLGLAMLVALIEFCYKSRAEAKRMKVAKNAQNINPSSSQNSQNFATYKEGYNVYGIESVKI", "test": "10 μM glutamate-evoked currents in Xenopus laevis oocytes expressing GluA1flop/GluA2flip (repetitive pulses, GYKI52466)", "format": "cell-based", "conditions": "for EC50: n = 3", "description": "(§1) Compounds were tested by bath application.\nTo test the inhibition, the selective AMPA receptor antagonist GYKI52446 was used from 10 to 1000 μM on the potentiation caused by S 47445 (1 μM).\nEC50 were determined either using Matlab (Mathworks inc., Natick, USA) or SAS v9.2 (SAS Institute inc., Cary, USA) softwares. To have a comparative value between the tested drugs when EC50 could not be determined (absence of plateau at high concentrations), the EC2X was determined. EC2X corresponds to the concentrations of the drug responsible for a two-fold increase in the amplitude of the current."}, "[2]": {"design": "method as in previous kinetic experiments (reference not given)", "conditions": "0.3 mg/kg oral, rats; ref previous kinetic experiments (reference not given); read-out: Cerebral Cmax; cited from earlier work"}, "[3]": {"test_system": "Ca2+ channel (L, verapamil site) phenylalkylamines)", "test": "Binding assay, [3H](-)D 888"}, "male adult Wistar rats": {"test_system": "male adult Wistar rats", "test": "Spontaneous locomotor activity in rats", "format": "in vivo, rat", "conditions": "10, 30 and 100 mg/kg p.o. acute; n = 9", "description": "Locomotor activity was recorded in male adult Wistar rats (180–200 g, Janvier Labs, Le Genest Saint Isle, France) placed in cages in a soundproof keeping room (open-field). A remote surveillance appliance allowed to observe and to record animal behaviour from an adjacent room. The movie camera was connected to an automatic analysis system (videotrack software, Viewpoint, Lissieu, France). The distance covered (cm) was automatically computed for each rat. Rats were orally administered 1 h before the test with S 47445 (10, 30 and 100 mg/kg) or vehicle. Locomotor activity was recorded during 30 min divided in 3 x 10-min periods. The total covered distance over 30 min was analysed using one way (dose) ANOVA, followed in case of significance of the dose effect by Dunnett’s test (versus vehicle controls). The significance threshold was set at 5%. Analyses were performed using SAS v9.2 software (SAS Institute, Cary, NC)."}, "male OFA rats": {"test_system": "male OFA rats", "test": "Novel object recognition test in rats", "format": "in vivo, rat", "conditions": "3 administrations", "description": "Novel object recognition and T-maze studies were conducted respectively in male OFA rats (150–175 g, Charles River, Saint-Germain-Nuelles, France) and male C57Bl/6 mice (5.5–6.5 month-old, Charles River, Saint-Germain-Nuelles, France). Animals were housed in collective cages with continuous access to tap water and food on a 12 h light-dark cycle, in a temperature-controlled (21 ± 1°C) and ventilated room. On completion of studies subjects were euthanized by either CO2 inhalation or intraperitoneal (i.p.) lethal pentobarbital injection. The novel object recognition test was used as the primary in vivo screening assay to identify AMPA-PAMs. The T-maze task was performed using a modified continuous performance procedure previously described in mice.\nS 47445 was suspended either in distilled water with Tween80® 2% for oral administration or saline with Tween80® 2% for i.p. administration. Tween80® was obtained from Sigma-Aldrich, Lyon, France. S 47445 was synthetized by Servier, Suresnes, France. […]\nThe novel object recognition paradigm was developed by Ennaceur and Delacour, 1988 and aimed to evaluate potential procognitive effects of drugs on a form of recognition (episodic-like) memory in the rat. […] Consequently, recognition is measured by the time spent by rats in exploring two different objects, one being familiar and the other being new.\nAnimals were submitted to three phases of the test. […] Each rat was placed in the arena, and the time spent actively exploring the objects was recorded. […] After 24 h, during the third phase (session of recognition), each rat was again placed in the apparatus for 3 min in the presence of one of the familiar (Fam) objects and a new (New) object, and the time spent exploring both objects was again recorded. […] The difference in duration of exploration of the two objects (New-Fam) and the sum of duration of exploration on session of recognition were determined. Statistical analysis was performed on the discrimination index calculated as (New-Fam)/(Fam+New) using a one-way ANOVA using SAS v9.2 software (SAS Institute, Cary, NC). […]"}, "[4]": {"biological_target": "GluA1flop/GluA2flip (GluA1o/2i) AMPA receptors (Homo sapiens, UniProt P42261+P42262, Q607R)", "sequence (P42261 19-906)": "as the sequence (P42261 19-906) above", "sequence (P42262 25-883 isoform P42262-2 Q607R)": "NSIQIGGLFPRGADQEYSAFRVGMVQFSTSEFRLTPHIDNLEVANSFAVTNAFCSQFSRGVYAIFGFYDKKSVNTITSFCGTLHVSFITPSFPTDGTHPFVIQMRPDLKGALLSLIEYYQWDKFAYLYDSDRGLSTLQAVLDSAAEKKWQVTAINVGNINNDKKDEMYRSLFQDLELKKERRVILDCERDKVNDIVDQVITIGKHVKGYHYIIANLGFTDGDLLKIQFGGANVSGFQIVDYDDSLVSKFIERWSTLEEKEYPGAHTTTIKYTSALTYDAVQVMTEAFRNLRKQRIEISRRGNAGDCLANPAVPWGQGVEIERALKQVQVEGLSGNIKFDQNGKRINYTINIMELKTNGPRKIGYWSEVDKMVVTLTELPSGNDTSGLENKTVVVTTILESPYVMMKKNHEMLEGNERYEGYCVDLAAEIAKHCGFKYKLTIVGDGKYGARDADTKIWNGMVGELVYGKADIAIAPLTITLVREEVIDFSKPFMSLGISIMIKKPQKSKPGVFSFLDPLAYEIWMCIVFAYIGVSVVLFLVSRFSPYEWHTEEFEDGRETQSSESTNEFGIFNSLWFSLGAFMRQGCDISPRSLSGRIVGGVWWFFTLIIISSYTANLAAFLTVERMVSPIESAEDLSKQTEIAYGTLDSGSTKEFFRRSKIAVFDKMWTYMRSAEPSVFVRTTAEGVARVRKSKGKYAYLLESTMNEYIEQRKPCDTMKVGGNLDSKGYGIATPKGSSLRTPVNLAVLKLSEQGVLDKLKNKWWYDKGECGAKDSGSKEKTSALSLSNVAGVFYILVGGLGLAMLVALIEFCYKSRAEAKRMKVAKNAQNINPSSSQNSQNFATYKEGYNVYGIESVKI", "test": "Whole cell patch clamp recordings in transiently transfected HEK-293 cells", "conditions": "0.1 μM S 47445"}, "[5]": {"biological_target": "AMPA/Kainate chimera GluA1(K2NTD) (Homo sapiens, UniProt P42261+Q13002)", "sequence (Q13002+P42261 fused, change not shown)": "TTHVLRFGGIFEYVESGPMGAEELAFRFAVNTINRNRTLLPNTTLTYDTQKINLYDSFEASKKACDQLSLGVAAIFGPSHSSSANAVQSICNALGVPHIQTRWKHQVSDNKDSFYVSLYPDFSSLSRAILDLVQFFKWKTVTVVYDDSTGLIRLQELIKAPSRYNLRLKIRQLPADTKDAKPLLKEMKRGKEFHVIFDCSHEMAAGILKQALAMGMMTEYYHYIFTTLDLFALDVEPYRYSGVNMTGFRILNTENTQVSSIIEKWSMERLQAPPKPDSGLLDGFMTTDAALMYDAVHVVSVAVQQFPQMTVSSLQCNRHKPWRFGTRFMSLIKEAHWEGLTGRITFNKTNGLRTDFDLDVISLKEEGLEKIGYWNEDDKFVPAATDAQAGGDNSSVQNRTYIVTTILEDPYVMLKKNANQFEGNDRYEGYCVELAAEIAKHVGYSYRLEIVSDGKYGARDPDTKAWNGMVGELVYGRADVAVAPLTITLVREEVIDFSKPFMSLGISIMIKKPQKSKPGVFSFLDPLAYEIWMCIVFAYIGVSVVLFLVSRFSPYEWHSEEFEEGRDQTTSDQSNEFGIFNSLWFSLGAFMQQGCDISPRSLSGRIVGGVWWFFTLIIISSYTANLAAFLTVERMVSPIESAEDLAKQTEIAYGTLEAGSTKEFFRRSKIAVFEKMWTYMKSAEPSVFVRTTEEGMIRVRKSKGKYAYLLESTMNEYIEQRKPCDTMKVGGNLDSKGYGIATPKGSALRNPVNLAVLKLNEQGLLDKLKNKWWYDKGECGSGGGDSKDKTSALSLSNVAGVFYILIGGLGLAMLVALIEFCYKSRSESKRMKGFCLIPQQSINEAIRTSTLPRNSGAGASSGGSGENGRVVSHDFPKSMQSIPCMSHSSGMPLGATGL", "test": "Glutamate-evoked current in oocytes expressing AMPA/Kainate chimera", "format": "cell-based", "description": "as §1"}, "[6]": {"test_system": "about a hundred receptors, enzymes, transporters and channels", "test": "CEREP panel, competition binding and enzyme assays"}, "I1": {"test_system": "I1", "test": "Binding assay, [3H]clonidine (+ 10 μM RX821002)"}, "[7]": {"test": "Solubility noted in co-crystallization experiments with GluA2", "format": "physicochemical", "conditions": "prevented co-crystallization with GluA2"}, "Human AMPA receptors": {"test_system": "Human AMPA receptors", "test": "AMPA-evoked currents, Xenopus laevis oocytes injected with human hippocampal poly(A+) mRNA", "format": "cell-based", "conditions": "geometric mean", "description": "as §1"}, "PDE1": {"test_system": "PDE1", "test": "Enzyme and cell-based assay, [3H]cAMP + cAMP (1 μM)"}},
  "data": [
    {"smiles": "O=C1c2cc3nnn(CCc4cccc(F)c4)c(=O)c3cc2OCN1C1CC1", "note": "[S 47445, 8-cyclopropyl-3-[2-(3-fluorophenyl)ethyl]-7,8-dihydro-3H-[1,3]oxazino[6,5-g][1,2,3]benzotriazine-4,9-dione]", "values": [
      {"measurement": "EC50", "setting": "[1]; EC50 of potentiation in absence of GYKI52466, 10 μM glutamate", "result": "3.23 ± 0.5", "unit": "µM"},
      {"measurement": "EC50", "setting": "[1]; EC50 of potentiation in presence of 100μM of GYKI52466, 10 μM glutamate", "result": "1.99 ± 0.3", "unit": "µM"},
      {"measurement": "Effect on glutamate-evoked currents with repetitive glutamate pulses", "setting": "[1]; S 47445 0.1 and 0.3 μM, 10 μM glutamate 20 s, 1/min", "result": "progressive potentiation of the glutamate-evoked currents from the second pulse of glutamate"},
      {"measurement": "Cmax", "setting": "[2]", "result": "100 to 200", "unit": "nM"},
      {"measurement": "% Inhibition of control specific binding", "setting": "[3]; S 47445 1.0E-05 M", "result": -1, "unit": "%"},
      {"measurement": "% Inhibition of control specific binding", "setting": "[3]; S 47445 1.0E-07 M", "result": 4, "unit": "%"},
      {"measurement": "Total distance of spontaneous locomotor activity", "setting": "male adult Wistar rats", "result": "did not significantly modify"},
      {"measurement": "Discrimination index versus vehicle", "setting": "male OFA rats; 0.3 mg/kg p.o., p ≤ 0.01", "result": "significantly increased the discrimination index"},
      {"measurement": "Discrimination index versus vehicle", "setting": "male OFA rats; 1 mg/kg p.o., tendency of increase", "result": "did not reach statistical significance"},
      {"measurement": "Discrimination index versus vehicle", "setting": "male OFA rats; 3 mg/kg p.o., p ≤ 0.05", "result": "significantly increased the discrimination index"},
      {"measurement": "Leftward shift in the EC50 of glutamate", "setting": "[4]", "result": "about 16 fold"},
      {"measurement": "Amplitude of the glutamate response in presence of S 47445", "setting": "[4]; control 94.7 ± 32.8 pA", "result": "247 ± 70", "unit": "pA"},
      {"measurement": "EC50", "setting": "[5]", "result": 4.2, "unit": "µM"},
      {"measurement": "Percentage of inhibition of control value", "setting": "[6]; 10 μM S 47445, all assays of S1 Table", "result": "lower than 50%"},
      {"measurement": "Ki", "setting": "[6]; read-out: Ki values in all these assays, inferred from <50% inhibition at 10 μM", "result": "> 10", "unit": "µM"},
      {"measurement": "% Inhibition of control specific binding", "setting": "I1; S 47445 1.0E-05 M", "result": 21, "unit": "%"},
      {"measurement": "% Inhibition of control specific binding", "setting": "I1; S 47445 1.0E-07 M", "result": 10, "unit": "%"},
      {"measurement": "Solubility", "setting": "[7]", "result": "poor solubility"},
      {"measurement": "EC2X", "setting": "Human AMPA receptors; concentration giving a two-fold increase in current amplitude", "result": 4.77, "unit": "µM"},
      {"measurement": "EC50", "setting": "Human AMPA receptors; potentiation of 10 μM AMPA-evoked current", "result": 7.08, "unit": "µM"},
      {"measurement": "% Inhibition of control specific binding", "setting": "PDE1; S 47445 1.0E-05 M", "result": 10, "unit": "%"},
      {"measurement": "% Inhibition of control specific binding", "setting": "PDE1; S 47445 1.0E-07 M", "result": 1, "unit": "%"}
    ]}
  ]
}
